# From paper PMC12736791, “Co-Amorphous Systems Based on Dihydroquercetin and L-Lysine: Synthesis and Evaluation” (Pharmaceutics, 2025)
# Where two headings read alike, the source gives them in different places.
# Legend:
# [1] = Solubility studies, pharmacopoeial descriptive terms; assay type: physicochemical; settings: in water at room temperature
# Protocol: The analysis was performed in accordance with the pharmacopoeial monograph of the State Pharmacopoeia of the Russian Federation XV, which is equivalent to the terms of the Pharmacopoeia of the Eurasian Economic Union and the European Pharmacopeia 11.5 at ambient conditions.
# A measured amount of solvent was added to the suspension of the substance, and the mixture was continuously shaken for 1 min and placed in a thermostat set at a temperature of 24.5–25.5 °C for 15 min. If the substance had not completely dissolved, the shaking process was repeated for another minute, and the solution was kept in the thermostat for another 15 min period at the same temperature.
# HEK293 cells = experiment: Cytotoxicity assay (CCK-8), HEK293; assay type: cell-based, human; settings: HEK293, 24 h
# Protocol: (§1) The cells were cultured in a medium containing DMEM:FBS:MEM:P/S in a ratio of 88:10:1:1 for Caco-2 (immortalized human colorectal adenocarcinoma) cells, and DMEM:FBS:P/S in a ratio of 89:10:1 for HUVEC (Human umbilical vein endothelial cells), 3T3 (mouse embryonic fibroblasts), and HEK293 (immortalized human embryonic kidney) cell lines. The cell cultures were maintained in 100 mm diameter Petri dishes within a CelMate® CO2 Incubator (Esco Lifesciences Group, Singapore) at 37 °C in an atmosphere containing 5% carbon dioxide and a relative humidity of 95%. The culture medium was refreshed every 24 h.
# (§2) To determine cell concentration, 1.0 mL of a trypsin solution containing EDTA, pre-warmed to 37 °C, was added to a Petri dish and incubated for up to 5 min. […] Subsequently, 100 µL of the solution was introduced into the Neubauer chamber XB.K.25 (QUIJING, Shanghai, China), and the concentration (cells/mL) was calculated using the following formula:(1) C=Ncell/Nsquares×[…], where Ncell represents the number of cells counted in the Neubauer chamber field and Nsquares represents the number of squares in the Neubauer chamber used for concentration calculation. […]
# (§3) The resulting solutions were analyzed on a microplate spectrophotometer Eon (BioTek, Winooski, VT, USA) at the maximum absorption of the reduced form of CCK-8, measured at 450 nm. […]
# Caco-2 cells = experiment: Cytotoxicity assay (CCK-8), Caco-2; assay type: cell-based, human; settings: Caco-2, 24 h
# Protocol: as §1, §2, §3
# HUVEC cells = experiment: Cytotoxicity assay (CCK-8), HUVEC; assay type: cell-based, human; settings: 24 h
# Protocol: as §1, §2, §3
# 3T3 cells = experiment: Cytotoxicity assay (CCK-8), 3T3; assay type: cell-based, mouse
# Protocol: as §1, §2, §3
# [2] = parameters: method as in earlier work; settings: water, room temperature; European Pharmacopoeia 11.5; cited from earlier work
# [3] = parameters: method as in PMID 38139995; settings: unmodified flavonoid; cited from earlier work
smiles,measurement,setting,value
"O=C1c2c(O)cc(O)cc2OC(c2ccc(O)c(O)c2)C1O (centres unmarked) [DHQraw, 2,3-dihydro-3,5,7-trihydroxy-2-(3,4-dihydroxyphenyl)-4H-1-benzopyran-4-one]",Solubility (pharmacopoeial descriptive term),[1],very slightly soluble
same,IC50,"HEK293 cells; Homo sapiens, read-out: IC50",39 µg/mL
same,IC50,"Caco-2 cells; Homo sapiens, read-out: IC50",65 µg/mL
same,IC50,"HUVEC cells; Homo sapiens, read-out: IC50",88 µg/mL
same,IC50,"3T3 cells; Mus musculus, NIH3T3, 3T3, 24 h, read-out: IC50",96 µg/mL
same,Solubility (pharmacopoeial descriptive term),[2],very slightly soluble
NCCCC[C@H](N)C(=O)O [LYSlyo],IC50,HEK293 cells,1490 µg/mL
same,IC50,Caco-2 cells,538 µg/mL
same,IC50,HUVEC cells,826 µg/mL
same,IC50,"3T3 cells; 3T3, 24 h",above the maximum concentration
O=c1c(-c2ccc(O)cc2)coc2cc(O)cc(O)c12 [genistein],Solubility of genistein,[3],0.05 ± 0.01 µg/mL
